Assay results reported in patent US6017917A, “Guanidine derivatives” (Fujisawa Pharamceutical Co., Ltd., priority 1996, dated 2000).
Structures can show the parent of a compound that is named as a salt.

Biological target: T1, Na^+ /H^+ exchanger (Rattus norvegicus, UniProt P26431)
T1 construct: endogenous in cells; host or cells: thymocytes freshly isolated from the thymus of a male SD rat
Test: Inhibitory activity on Na^+ /H^+ exchange in cells (swelling of thymocytes in sodium propionate medium)
Assay type: cell-based, rat (SD strain)
Conditions: apparent Ki from Lineweaver-Burk plot, sodium-propionate medium pH 6.8, rate of swelling, 3-5 concentrations
Method: [2] Inhibitory activity on Na^+ /H^+ exchange in cells
Procedure was carried out according to a similar manner to the method described in Enzymology 173 , 777 (1989).
One male SD strain rat weighing 250-300 g was sacrificed with the blow on the head. Then, the thymus was removed into ice-cold NaCl medium (140 mM sodium chloride, 1 mM potassium chloride, 1 mM calcium chloride, 1 mM magnesium chloride, 10 mM glucose and 20 mM N-2-hydroxyethylpiperazine-N'-2-ethanesulfonic acid (HEADS)--pH 7.3), cut in small fragments, and transferred to glass homogenizer. The cells were dissociated by gentle strokes, and the resulting suspension was filtrated through six layers of surgical gauze and the filtrate was centrifuged at 4° C. at 1000 g for 5 minutes. The pellet was resuspended in RPMI 1640 medium (pH 7.3) at room temperature to adjust final cell concentration (1×10^7 cells/ml).
This method detects the swelling that accompanies activation of Na^+ /H^+ exchanger in cells incubated with sodium propionate. Propionic acid rapidly penetrates through the membrane. […]
Cell sizing and counting were performed electrically with the Coulter Counter-Channelyzer (AT-II). […] Rate of Swelling (Δ volume/min.) was measured by using 3-5 concentrations of test compound. Then, apparent Ki value of test compound was calculated by using Line weaver-Burk plot.

T1 sequence (P26431 whole entry): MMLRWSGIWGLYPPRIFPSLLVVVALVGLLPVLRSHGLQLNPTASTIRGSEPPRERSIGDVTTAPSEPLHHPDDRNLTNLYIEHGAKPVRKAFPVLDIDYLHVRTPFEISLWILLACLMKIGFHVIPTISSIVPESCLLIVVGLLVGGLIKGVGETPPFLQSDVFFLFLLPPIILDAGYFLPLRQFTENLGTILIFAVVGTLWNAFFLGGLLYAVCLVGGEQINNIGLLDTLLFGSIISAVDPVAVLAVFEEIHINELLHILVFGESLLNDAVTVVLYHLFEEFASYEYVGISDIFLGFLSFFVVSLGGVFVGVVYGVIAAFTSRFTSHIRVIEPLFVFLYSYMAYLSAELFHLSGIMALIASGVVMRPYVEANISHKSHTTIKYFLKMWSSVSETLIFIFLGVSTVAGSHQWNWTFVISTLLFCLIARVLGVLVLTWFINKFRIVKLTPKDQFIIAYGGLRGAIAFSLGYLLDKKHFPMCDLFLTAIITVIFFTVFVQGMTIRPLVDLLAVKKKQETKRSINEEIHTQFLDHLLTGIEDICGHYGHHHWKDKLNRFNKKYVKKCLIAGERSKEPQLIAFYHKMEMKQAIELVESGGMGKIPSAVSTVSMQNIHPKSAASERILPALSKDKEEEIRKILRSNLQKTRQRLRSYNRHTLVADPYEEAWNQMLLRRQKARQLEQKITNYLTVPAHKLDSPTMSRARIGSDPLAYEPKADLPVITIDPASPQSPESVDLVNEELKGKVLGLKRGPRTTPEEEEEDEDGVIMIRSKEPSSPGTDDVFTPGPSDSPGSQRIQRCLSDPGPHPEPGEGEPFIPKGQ

Ki: < 100 nM
SMILES: NC(N)=NC(=O)c1cc(C(=O)NCCN2CCOCC2)cc(-c2cc(Cl)ccc2Cl)c1 [(a), [5-(2,5-dichlorophenyl)-3-[(2-morpholinoethyl)-carbamoyl]benzoyl]guanidine.dihydrochloride]
